Legend:
MV-4-11 cells = test: Inhibition of proliferation of myeloid monocytic leukemia cells MV-4-11 (cell viability assay, 96 h); assay type: cell-based, human; settings: read-out: inhibitory activity (IC50) against tumor cells proliferation, MV-4-11
Protocol: (§1) The tumor cells used herein were cultured in a cell culture medium listed in table 2 at 37 °C in an incubator with 5% CO2. Prior to experimentation, all cell lines used were correctly identified by STR profiling, and tested negative for Mycoplasma contamination using a Mycoplasma detection kit through routine screenings.
(§2) The IC50 values of the compounds of the present disclosure (including the compounds in Table 1, and Examples 1-498) were determined using the CellTiter-Meiluncell Luminescent Cell Viability Assay Kit from Dalian Meilun Biotech Co., Ltd. The detailed procedure is as follows: Tumor cells were seeded in 96-well cell culture plates at the densities specified in Table 3. On the following day, the test compounds of the present disclosure were subjected to serial dilution. […] Subsequently, 0.5 μL of the test compound dilution was transferred into the 96-well plate containing the cells, with each well containing 100 μL of cell culture medium. […] Into the 96-well plate, the diluted test compounds and corresponding detection reagents were added, resulting in final test compound concentrations of 500 nM and 10 nM, respectively. The experimental procedure is described below using the diluted 2 μM test compound as an example.
(§3) 0.5 μL of the aforementioned diluted compound of the present disclosure (including the compounds in Table 1, and Examples 1-498) was added to the seeded cells in 100 μL of medium, yielding a final test compound concentration of 10 nM. After the cells were treated with the compounds of the present disclosure for a specified period, the cell viability assay reagent was added to the culture medium according to the kit's instructions to determine cell viability. […] All controls were treated using the same procedure as the compounds of the present disclosure. The growth inhibition curves for the compounds of the present disclosure were plotted using Prism GraphPad software, and the IC50 values were calculated therefrom.

WEE1 = target: T1, WEE1 (Homo sapiens, UniProt P30291+Q96SW2); test: Western blot degradation of WEE1 in hPBMCs (24 h); assay type: cell-based; settings: compounds at 50 nM and 500 nM
T1 construct: The supernatant was aspirated as the extracted total cell protein; endogenous in cells; host or cells: human peripheral blood mononuclear cells (hPBMCs)
Method in brief: (§4)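 Read-out is Western blot band grayscale, divided by internal control band and normalised to give percent target protein remaining; degradation rate is 1 minus that value. Cells were human PBMCs exposed to compound at 50 nM and 500 nM for 24 hours.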

IKZF1 = target: T2, IKZF1 (Homo sapiens, UniProt Q13422+Q96SW2); test: Western blot degradation of IKZF1 in hPBMCs (24 h); assay type: cell-based; settings: compounds at 50 nM and 500 nM
T2 construct: The supernatant was aspirated as the extracted total cell protein; endogenous in cells; host or cells: human peripheral blood mononuclear cells (hPBMCs)
Method in brief: as §4

IKZF2 = target: T3, IKZF2 (Homo sapiens, UniProt Q96SW2+Q9UKS7); test: Western blot degradation of IKZF2 in hPBMCs (24 h); assay type: cell-based; settings: compounds at 50 nM and 500 nM
T3 construct: The supernatant was aspirated as the extracted total cell protein; endogenous in cells; host or cells: human peripheral blood mononuclear cells (hPBMCs)
Method in brief: as §4

IKZF3 = target: T4, IKZF3 (Homo sapiens, UniProt Q96SW2+Q9UKT9); test: Western blot degradation of IKZF3 in hPBMCs (24 h); assay type: cell-based; settings: compounds at 50 nM and 500 nM
T4 construct: The supernatant was aspirated as the extracted total cell protein; endogenous in cells; host or cells: human peripheral blood mononuclear cells (hPBMCs)
Method in brief: as §4

CK1α = target: T5, CK1α (Homo sapiens, UniProt P48729+Q96SW2); test: Western blot degradation of CK1α in hPBMCs (24 h); assay type: cell-based; settings: compounds at 50 nM and 500 nM
T5 construct: The supernatant was aspirated as the extracted total cell protein; endogenous in cells; host or cells: human peripheral blood mononuclear cells (hPBMCs)
Method in brief: as §4

GSPT1 = target: T6, GSPT1 (Homo sapiens, UniProt P15170+Q96SW2); test: Western blot degradation of GSPT1 in hPBMCs (24 h); assay type: cell-based; settings: compounds at 50 nM and 500 nM
T6 construct: The supernatant was aspirated as the extracted total cell protein; endogenous in cells; host or cells: human peripheral blood mononuclear cells (hPBMCs)
Method in brief: as §4

Jurkat cells = test: Inhibition of proliferation of T lymphocytic leukemia cells Jurkat (cell viability assay, 96 h); assay type: cell-based, human; settings: read-out: inhibitory activity (IC50) against tumor cells proliferation, Jurkat
Protocol: as §1, §2, §3

T1 sequence (P30291 whole entry): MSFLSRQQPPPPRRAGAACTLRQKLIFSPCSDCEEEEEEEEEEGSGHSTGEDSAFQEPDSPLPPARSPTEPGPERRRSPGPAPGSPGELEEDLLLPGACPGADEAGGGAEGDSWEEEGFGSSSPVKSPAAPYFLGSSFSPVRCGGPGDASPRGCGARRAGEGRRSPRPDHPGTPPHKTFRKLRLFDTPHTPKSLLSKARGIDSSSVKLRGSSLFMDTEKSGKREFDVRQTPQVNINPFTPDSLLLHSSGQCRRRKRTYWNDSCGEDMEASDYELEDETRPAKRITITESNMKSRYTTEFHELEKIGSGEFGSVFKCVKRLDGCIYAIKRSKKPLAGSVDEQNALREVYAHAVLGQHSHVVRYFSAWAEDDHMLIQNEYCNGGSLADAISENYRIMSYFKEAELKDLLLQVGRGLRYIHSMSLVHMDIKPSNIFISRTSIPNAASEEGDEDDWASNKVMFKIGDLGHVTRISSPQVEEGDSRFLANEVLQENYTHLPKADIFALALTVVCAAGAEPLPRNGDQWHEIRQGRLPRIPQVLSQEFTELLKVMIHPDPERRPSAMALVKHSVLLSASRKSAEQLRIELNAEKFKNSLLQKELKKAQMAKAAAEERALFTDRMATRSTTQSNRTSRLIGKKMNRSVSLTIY
T1 sequence (Q96SW2 whole entry): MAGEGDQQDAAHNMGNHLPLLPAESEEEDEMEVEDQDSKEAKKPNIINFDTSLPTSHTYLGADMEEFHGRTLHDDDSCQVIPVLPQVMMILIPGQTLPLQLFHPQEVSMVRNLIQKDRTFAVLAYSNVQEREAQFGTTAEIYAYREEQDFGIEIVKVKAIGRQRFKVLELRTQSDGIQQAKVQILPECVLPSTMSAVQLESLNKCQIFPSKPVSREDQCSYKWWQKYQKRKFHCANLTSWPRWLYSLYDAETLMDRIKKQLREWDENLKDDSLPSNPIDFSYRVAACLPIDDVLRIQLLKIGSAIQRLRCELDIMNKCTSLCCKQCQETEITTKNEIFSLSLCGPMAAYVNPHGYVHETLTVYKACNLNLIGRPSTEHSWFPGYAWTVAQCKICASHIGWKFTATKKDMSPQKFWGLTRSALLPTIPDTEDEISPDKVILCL
T1 sequence (Q16531 whole entry partner): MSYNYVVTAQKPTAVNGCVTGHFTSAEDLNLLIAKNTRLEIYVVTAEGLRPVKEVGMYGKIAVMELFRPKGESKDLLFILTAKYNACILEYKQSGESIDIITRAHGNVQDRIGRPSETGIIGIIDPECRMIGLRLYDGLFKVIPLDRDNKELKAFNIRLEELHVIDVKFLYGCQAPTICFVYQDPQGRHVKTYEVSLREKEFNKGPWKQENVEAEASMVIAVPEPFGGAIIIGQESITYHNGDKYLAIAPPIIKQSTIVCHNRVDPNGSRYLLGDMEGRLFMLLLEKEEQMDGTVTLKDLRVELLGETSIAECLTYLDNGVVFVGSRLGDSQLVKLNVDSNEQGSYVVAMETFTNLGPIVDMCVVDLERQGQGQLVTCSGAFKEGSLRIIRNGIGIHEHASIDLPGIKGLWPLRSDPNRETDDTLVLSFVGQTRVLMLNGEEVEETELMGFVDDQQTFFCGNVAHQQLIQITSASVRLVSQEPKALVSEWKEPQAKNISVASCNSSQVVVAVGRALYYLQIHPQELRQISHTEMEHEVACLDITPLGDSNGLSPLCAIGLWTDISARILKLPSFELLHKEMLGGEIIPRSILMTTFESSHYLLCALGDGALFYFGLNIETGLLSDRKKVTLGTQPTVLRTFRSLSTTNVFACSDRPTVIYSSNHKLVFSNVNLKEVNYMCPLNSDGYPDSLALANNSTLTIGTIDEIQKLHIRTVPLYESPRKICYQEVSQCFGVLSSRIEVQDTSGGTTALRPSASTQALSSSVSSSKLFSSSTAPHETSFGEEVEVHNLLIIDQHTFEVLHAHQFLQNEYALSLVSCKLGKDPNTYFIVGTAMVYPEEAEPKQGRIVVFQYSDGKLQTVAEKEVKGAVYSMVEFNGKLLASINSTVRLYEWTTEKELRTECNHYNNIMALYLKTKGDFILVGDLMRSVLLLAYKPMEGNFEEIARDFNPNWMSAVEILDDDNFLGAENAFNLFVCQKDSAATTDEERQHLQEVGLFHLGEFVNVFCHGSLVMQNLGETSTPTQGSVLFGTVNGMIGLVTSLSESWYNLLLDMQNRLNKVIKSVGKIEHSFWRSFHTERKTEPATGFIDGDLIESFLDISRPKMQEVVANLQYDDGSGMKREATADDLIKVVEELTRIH
T3 sequence (Q9UKS7 whole entry): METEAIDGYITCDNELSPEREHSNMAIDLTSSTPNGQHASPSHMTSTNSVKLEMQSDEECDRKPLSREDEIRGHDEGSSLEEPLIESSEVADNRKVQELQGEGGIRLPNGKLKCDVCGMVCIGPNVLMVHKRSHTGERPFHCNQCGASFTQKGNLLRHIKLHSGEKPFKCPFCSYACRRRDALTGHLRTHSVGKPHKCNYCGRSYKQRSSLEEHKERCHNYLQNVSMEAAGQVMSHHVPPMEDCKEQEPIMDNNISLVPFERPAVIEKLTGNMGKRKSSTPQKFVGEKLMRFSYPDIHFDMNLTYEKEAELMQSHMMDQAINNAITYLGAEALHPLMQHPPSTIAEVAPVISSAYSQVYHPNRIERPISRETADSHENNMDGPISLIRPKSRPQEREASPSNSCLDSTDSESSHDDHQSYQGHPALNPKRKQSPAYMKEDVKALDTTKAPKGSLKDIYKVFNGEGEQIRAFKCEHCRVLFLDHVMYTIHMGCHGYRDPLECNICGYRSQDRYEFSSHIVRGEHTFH
T3 sequence (Q96SW2 whole entry): as the sequence (Q96SW2 whole entry) above
T3 sequence (Q16531 whole entry partner): as the sequence (Q16531 whole entry partner) above
T2 sequence (Q13422 whole entry): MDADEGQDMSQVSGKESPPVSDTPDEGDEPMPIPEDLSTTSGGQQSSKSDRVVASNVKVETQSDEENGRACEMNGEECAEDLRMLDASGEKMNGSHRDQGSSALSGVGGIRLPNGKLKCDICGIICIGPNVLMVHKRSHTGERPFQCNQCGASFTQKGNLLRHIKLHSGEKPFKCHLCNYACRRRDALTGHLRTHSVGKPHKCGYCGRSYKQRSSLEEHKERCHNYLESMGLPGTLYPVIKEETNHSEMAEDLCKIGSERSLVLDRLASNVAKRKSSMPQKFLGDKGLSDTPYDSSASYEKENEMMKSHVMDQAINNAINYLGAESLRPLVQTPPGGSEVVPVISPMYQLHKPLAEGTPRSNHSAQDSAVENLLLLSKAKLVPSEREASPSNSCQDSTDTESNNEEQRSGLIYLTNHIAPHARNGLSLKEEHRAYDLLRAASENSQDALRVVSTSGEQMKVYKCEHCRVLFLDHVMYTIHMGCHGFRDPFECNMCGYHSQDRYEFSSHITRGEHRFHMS
T2 sequence (Q96SW2 whole entry): as the sequence (Q96SW2 whole entry) above
T2 sequence (Q16531 whole entry partner): as the sequence (Q16531 whole entry partner) above
T6 sequence (P15170 whole entry): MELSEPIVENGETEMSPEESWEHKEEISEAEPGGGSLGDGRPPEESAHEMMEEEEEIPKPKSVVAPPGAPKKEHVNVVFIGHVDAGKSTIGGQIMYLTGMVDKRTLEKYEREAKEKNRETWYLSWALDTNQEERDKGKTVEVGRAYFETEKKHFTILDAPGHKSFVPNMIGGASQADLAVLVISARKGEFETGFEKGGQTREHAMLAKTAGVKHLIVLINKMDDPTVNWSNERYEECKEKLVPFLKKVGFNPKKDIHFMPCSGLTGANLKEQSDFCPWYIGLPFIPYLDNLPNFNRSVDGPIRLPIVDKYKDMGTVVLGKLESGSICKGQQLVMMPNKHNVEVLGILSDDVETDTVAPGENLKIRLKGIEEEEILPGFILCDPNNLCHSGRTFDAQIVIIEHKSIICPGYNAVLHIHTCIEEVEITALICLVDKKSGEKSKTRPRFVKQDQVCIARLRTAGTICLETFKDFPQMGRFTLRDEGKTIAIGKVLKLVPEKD
T6 sequence (Q96SW2 whole entry): as the sequence (Q96SW2 whole entry) above
T6 sequence (Q16531 whole entry partner): as the sequence (Q16531 whole entry partner) above
T4 sequence (Q9UKT9 whole entry): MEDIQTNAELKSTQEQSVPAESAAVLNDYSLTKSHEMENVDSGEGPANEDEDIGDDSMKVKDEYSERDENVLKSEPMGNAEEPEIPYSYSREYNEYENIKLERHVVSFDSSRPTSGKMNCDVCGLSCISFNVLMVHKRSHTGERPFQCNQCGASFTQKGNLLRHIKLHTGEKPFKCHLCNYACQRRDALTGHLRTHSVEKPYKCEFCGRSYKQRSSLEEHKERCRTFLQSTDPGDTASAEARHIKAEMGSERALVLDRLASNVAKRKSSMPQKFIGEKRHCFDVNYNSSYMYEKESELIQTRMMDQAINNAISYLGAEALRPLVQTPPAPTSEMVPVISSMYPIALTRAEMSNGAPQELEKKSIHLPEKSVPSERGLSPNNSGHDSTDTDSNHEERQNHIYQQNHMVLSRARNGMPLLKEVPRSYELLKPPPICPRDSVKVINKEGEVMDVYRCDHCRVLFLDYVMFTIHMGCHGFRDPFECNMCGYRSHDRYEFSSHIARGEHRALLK
T4 sequence (Q96SW2 whole entry): as the sequence (Q96SW2 whole entry) above
T4 sequence (Q16531 whole entry partner): as the sequence (Q16531 whole entry partner) above

Compound | IC50 (MV-4-11 cells) [nM] | WEE1 substrate protein remaining % (WEE1) | IKZF1 substrate protein remaining % (IKZF1) | IKZF2 substrate protein remaining % (IKZF2) | IKZF3 substrate protein remaining % (IKZF3) | CK1α substrate protein remaining % (CK1α) | GSPT1 substrate protein remaining % (GSPT1) | IC50 (Jurkat cells) [nM]
O=C1CCN(N2Cc3cc(CN4CCN(c5ccc(Cl)cc5)CC4)ccc3C2=O)C(=O)N1 [GT-06765, 1-(5-((4-(4-chlorophenyl)piperazin-1-yl)methyl)-1-oxoisoindolin-2-yl)dihydropyrimidine-2,4(1H,3H)-dione] | 500 to 1000 | B (80%< substrate protein remaining % ≤100%) | B (80%< substrate protein remaining % ≤100%) | B (80%< substrate protein remaining % ≤100%) | B (80%< substrate protein remaining % ≤100%) | A (0% ≤ substrate protein remaining % ≤80%) | B (80%< substrate protein remaining % ≤100%) | –
O=C1CCN(N2Cc3cc(CN4CCN(c5ccccc5Br)CC4)ccc3C2=O)C(=O)N1 [GT-06766, 1-(5-((4-(2-bromophenyl)piperazin-1-yl)methyl)-1-oxoisoindolin-2-yl)dihydropyrimidine-2,4(1H,3H)-dione] | 500 to 1000 | A (0% ≤ substrate protein remaining % ≤80%) | A (0% ≤ substrate protein remaining % ≤80%) | A (0% ≤ substrate protein remaining % ≤80%) | A (0% ≤ substrate protein remaining % ≤80%) | A (0% ≤ substrate protein remaining % ≤80%) | A (0% ≤ substrate protein remaining % ≤80%) | –
Cc1cccc(N2CCN(Cc3ccc4c(c3)CN(N3CCC(=O)NC3=O)C4=O)CC2)c1 [GT-06770, 1-(1-oxo-5-((4-(m-tolyl)piperazin-1-yl)methyl)isoindolin-2-yl)dihydropyrimidine-2,4(1H,3H)-dione] | 500 to 1000 | A (0% ≤ substrate protein remaining % ≤80%) | A (0% ≤ substrate protein remaining % ≤80%) | A (0% ≤ substrate protein remaining % ≤80%) | A (0% ≤ substrate protein remaining % ≤80%) | A (0% ≤ substrate protein remaining % ≤80%) | A (0% ≤ substrate protein remaining % ≤80%) | 500 to 1000
O=C1CCN(N2Cc3cc(CN4CCN(c5cc(Cl)ccc5Cl)CC4)ccc3C2=O)C(=O)N1 [GT-06773, 1-(5-((4-(2,5-dichlorophenyl)piperazin-1-yl)methyl)-1-oxoisoindolin-2-yl)dihydropyrimidine-2,4(1H,3H)-dione] | 100 to 300 | A (0% ≤ substrate protein remaining % ≤80%) | B (80%< substrate protein remaining % ≤100%) | A (0% ≤ substrate protein remaining % ≤80%) | A (0% ≤ substrate protein remaining % ≤80%) | A (0% ≤ substrate protein remaining % ≤80%) | A (0% ≤ substrate protein remaining % ≤80%) | –
O=C1CCN(N2Cc3cc(CN4CCN(c5cc(Cl)cc(Cl)c5)CC4)ccc3C2=O)C(=O)N1 [GT-06776, 1-(5-((4-(3,5-dichlorophenyl)piperazin-1-yl)methyl)-1-oxoisoindolin-2-yl)dihydropyrimidine-2,4(1H,3H)-dione] | 100 to 300 | A (0% ≤ substrate protein remaining % ≤80%) | B (80%< substrate protein remaining % ≤100%) | A (0% ≤ substrate protein remaining % ≤80%) | B (80%< substrate protein remaining % ≤100%) | A (0% ≤ substrate protein remaining % ≤80%) | A (0% ≤ substrate protein remaining % ≤80%) | 500 to 1000
O=C1CCN(N2Cc3cc(CN4CCN(c5cccc(F)c5F)CC4)ccc3C2=O)C(=O)N1 [GT-06777, 1-(5-((4-(2,3-difluorophenyl)piperazin-1-yl)methyl)-1-oxoisoindolin-2-yl)dihydropyrimidine-2,4(1H,3H)-dione] | 300 to 500 | A (0% ≤ substrate protein remaining % ≤80%) | B (80%< substrate protein remaining % ≤100%) | A (0% ≤ substrate protein remaining % ≤80%) | B (80%< substrate protein remaining % ≤100%) | A (0% ≤ substrate protein remaining % ≤80%) | A (0% ≤ substrate protein remaining % ≤80%) | –
O=C1CCN(N2Cc3cc(CN4CCC(c5ccccc5)CC4)ccc3C2=O)C(=O)N1 [GT-06884, 1-(1-oxo-5-((4-phenylpiperidin-1-yl)methyl)isoindolin-2-yl)dihydropyrimidine-2,4(1H,3H)-dione] | 500 to 1000 | B (80%< substrate protein remaining % ≤100%) | B (80%< substrate protein remaining % ≤100%) | B (80%< substrate protein remaining % ≤100%) | B (80%< substrate protein remaining % ≤100%) | B (80%< substrate protein remaining % ≤100%) | A (0% ≤ substrate protein remaining % ≤80%) | –
O=C1CCN(N2Cc3cc(CN4CCC(c5cccc(Br)c5)CC4)ccc3C2=O)C(=O)N1 [GT-06885, 1-(5-((4-(3-bromophenyl)piperidin-1-yl)methyl)-1-oxoisoindolin-2-yl)dihydropyrimidine-2,4(1H,3H)-dione] | 100 to 300 | B (80%< substrate protein remaining % ≤100%) | A (0% ≤ substrate protein remaining % ≤80%) | A (0% ≤ substrate protein remaining % ≤80%) | B (80%< substrate protein remaining % ≤100%) | B (80%< substrate protein remaining % ≤100%) | A (0% ≤ substrate protein remaining % ≤80%) | –
O=C1CCN(N2Cc3cc(CN4CCC(c5cccc(C(F)(F)F)c5)CC4)ccc3C2=O)C(=O)N1 [GT-06892, 1-(1-oxo-5-((4-(3-(trifluoromethyl)phenyl)piperidin-1-yl)methyl)isoindolin-2-yl)dihydropyrimidine-2,4(1H,3H)-dione] | 500 to 1000 | B (80%< substrate protein remaining % ≤100%) | A (0% ≤ substrate protein remaining % ≤80%) | A (0% ≤ substrate protein remaining % ≤80%) | B (80%< substrate protein remaining % ≤100%) | B (80%< substrate protein remaining % ≤100%) | A (0% ≤ substrate protein remaining % ≤80%) | –
O=C1CCN(N2Cc3cc(CN4CCC(c5cccc(Cl)c5Cl)CC4)ccc3C2=O)C(=O)N1 [GT-06893, 1-(5-((4-(2,3-dichlorophenyl)piperidin-1-yl)methyl)-1-oxoisoindolin-2-yl)dihydropyrimidine-2,4(1H,3H)-dione] | 100 to 300 | B (80%< substrate protein remaining % ≤100%) | A (0% ≤ substrate protein remaining % ≤80%) | A (0% ≤ substrate protein remaining % ≤80%) | B (80%< substrate protein remaining % ≤100%) | B (80%< substrate protein remaining % ≤100%) | A (0% ≤ substrate protein remaining % ≤80%) | 500 to 1000
